Assay results from US20080161274A1, “Compounds and methods for inhibition of bone loss” (Resolvyx Pharmaceuticals, Inc., priority 2006, published 2008).

What was measured:
[1] = tested on: mice with established Type II collagen arthritis; experiment: 11 day male DBA/1J mouse established Type II collagen arthritis; type: in vivo; details: for clinical symptoms of arthritis (clinical scoring in the paws) / bone loss (histologic scoring) / pannus formation (histologic scoring): mice n=16; for clinical symptoms of arthritis (clinical scoring in the paws): vs arthritic control, FIG. 2a; for bone loss (histologic scoring) / pannus formation (histologic scoring): FIG. 2b
Experimental: Male DBA/1J mice (7-9 weeks old on arrival; at least 7 weeks old at time of first immunization) were housed 5 per cage and were acclimated for enough days after arrival such that all animals were at least 7 weeks old at start of study.
Mice were anesthetized with Isoflurane and given intradermal collagen (2 mg/ml) injections at the base of the tail in a volume of 150 μl (D0 and D21). On days 21-35, onset of arthritis occurred and mice were randomized into treatment groups. Randomization into each group was done after swelling was obviously established in at least one paw, and attempts were made to assure approximately equal mean scores across the groups at time of enrollment. Treatment was initiated after enrollment and continued every day for a total of 10 days as outlined in Table 3. During the ten days of treatment, clinical scores were given for each of the paws (right front, left front, right rear, and left rear) according to the scoring methods provided below.
• 0 normal • 1 1 hind or fore paw joint affected or minimal diffuse erythema and swelling • 2 2 hind or fore paw joints affected or mild diffuse erythema and swelling • 3 3 hind or fore paw joints affected or moderate diffuse erythema and swelling • 4 Marked diffuse erythema and swelling, or 4 digit joints affected • 5 Severe diffuse erythema and severe swelling entire paw, unable to flex digits
All dose solutions were prepared to deliver 10 ml/kg (0.3 ml/30 g mouse). On day 11 of arthritis, animals were euthanized, and both fore and hind limbs with knees were removed, placed into formalin and then processed for microscopy. Following 1-2 days in fixative and then 4-5 days in decalcifier, the joints were processed, embedded, sectioned and stained with toluidine blue. (Only fore and hind paws and knees were initially processed—6 joints/mouse.)
When scoring paws or ankles from mice with lesions of type II collagen arthritis, severity of changes as well as number of individual joints affected must be considered. When only 1-3 joints of the paws or ankles out of a possibility of numerous metacarpal/metatarsal/digit or tarsal/tibiotarsal joints were affected, an arbitrary assignment of a maximum score of 1, 2 or 3 from the scoring scale below was given depending on severity of changes. If more than 3 joints were involved, the full scoring scale below was applied only to the most severely affected/majority of joints.
• 0 Normal • 1 Minimal infiltration of pannus in cartilage and subchondral bone • 2 Mild infiltration with marginal zone destruction of hard tissue in affected joints • 3 Moderate infiltration with moderate hard tissue destruction in affected joints • 4 Marked infiltration with marked destruction of joint architecture, most joints • 5 Severe infiltration associated with total or near total destruction of joint architecture, affects all joints
• 0 Normal • 1 Minimal—small areas of resorption, not readily apparent on low magnification, rare osteoclasts in affected joints • 2 Mild—more numerous areas of resorption, not readily apparent on low magnification, osteoclasts more numerous in affected joints • 3 Moderate—obvious resorption of medullary trabecular and cortical bone without full thickness defects in cortex, loss of some medullary trabeculae, lesion apparent on low magnification, osteoclasts more numerous in affected joints • 4 Marked—Full thickness defects in cortical bone, often with distortion of profile of remaining cortical surface, marked loss of medullary bone, numerous osteoclasts, affects most joints • 5 Severe—Full thickness defects in cortical bone and destruction of joint architecture of all joints
Histologic parameters (mean ±SE) for each group were analyzed for differences using the Chi Square Test and one way ANOVA. Significance was set at p≦0.05.

rats with CIA = experiment: Rat collagen-induced arthritis (CIA), knee histopathology scoring; type: in vivo; details: rats n=9
Experimental: Female Lewis rats were anesthetized with 3-5% isoflurane and arthritis was induced by intradermal injection of 0.3 mL (100 μL at three different sites) of an emulsion containing 1.5 mg/mL of type II bovine collagen, CII (Elastin Products Inc., Cat# CM276), in incomplete Freund's adjuvant (IFA) at the base of the tail on day 0 and 6. Control rats were injected with an equal amount of IFA only.
The volume of both hind paws were measured using a water displacement plethysmometer (Ugo Basile, Biological Research Apparatus, Italy), and the onset of arthritis was indicated by increased paw volume, which appeared approximately on day 11 post injection. Both paw volumes and body weights were measured throughout the study every 2-3 days. Nineteen to twenty-one days after CII injection, the rats were euthanized with CO2. Blood was collected by cardiac puncture and serum was saved.
Bovine Type II collagen for tissue culture was purchased from Chondrex (Cat# 2022) and was reconstituted according to the manufacturer's instructions. All data were processed and analyzed by t-test using GraphPad Prism software.
After the animals were euthanized, both hind paws and knees were removed, hind paws were weighed, and the paws and knees were placed in formalin. Following 1-2 days in fixative and 4-5 days in decalcifier, the ankle joints were cut in half longitudinally, and the knees were cut in half in the frontal plane. The joints were then processed, embedded, sectioned and stained with toluidine blue. Collagen arthritic ankles and knees were given scores of 0-5 for inflammation, pannus formation and bone resorption according to the following criteria:
• 0 Normal • 1 Minimal infiltration of inflammatory cells in periarticular tissue • 2 Mild infiltration • 3 Moderate infiltration with moderate edema • 4 Marked infiltration with marked edema • 5 Severe infiltration with severe edema
• 0 Normal • 1 Minimal infiltration of pannus in cartilage and subchondral bone • 2 Mild infiltration (extends over up to ¼ of surface or subchondral area of tibia or femur) • 3 Moderate infiltration (extends over >¼ but <½ of surface or subchondral area of tibia or femur) • 4 Marked infiltration (extends over ½ to ¾ of tibial or femoral surface) • 5 Severe infiltration (covers >¾ of surface)
• 0 Normal • 1 Minimal: minimal to mild loss of toluidine blue staining with no obvious chondrocyte loss or collagen disruption • 2 Mild: mild loss of toluidine blue staining with focal mild (superficial) chondrocyte loss and/or collagen disruption • 3 Moderate: moderate loss of toluidine blue staining with multifocal to diffuse moderate (depth to middle zone) chondrocyte loss and/or collagen disruption • 4 Marked: marked loss of toluidine blue staining with multifocal to diffuse marked (depth to deep zone) chondrocyte loss and/or collagen disruption • 5 Severe: severe diffuse loss of toluidine blue staining with multifocal severe (depth to tide mark) chondrocyte loss and/or collagen disruption on both femur and tibia
• 0 Normal • 1 Minimal: small areas of resorption, not readily apparent on low magnification, rare osteoclasts • 2 Mild: more numerous areas of resorption, definite loss of subchondral bone involving ¼ of tibial or femoral surface (medial or lateral) • 3 Moderate: obvious resorption of subchondral bone involving >¼ but <½ of tibial or femoral surface (medial or lateral) • 4 Marked: obvious resorption of subchondral bone involving ≧½ but <¾ of tibial or femoral surface (medial or lateral) • 5 Severe: distortion of entire joint due to destruction involving >¾ of tibial or femoral surface (medial or lateral)

[2] = 0.5 μg/kg once daily i.v., vs vehicle control
[3] = 5.0 μg/kg once daily i.v., vs vehicle control
[4] = 0.3 mg/kg twice daily i.v., days 8 to 19, FIG. 3

CC[C@@H](O)/C=C/C=C\C[C@@H](O)/C=C/C=C/C=C\[C@@H](O)CCCC(=O)O [Compound X]
score of bone damage (histologic scoring in joints) ([1]; mice n=15, 5 μg/kg twice daily iv, vs vehicle control, FIG. 1): significant decrease | clinical symptoms of arthritis (clinical scoring in the paws) ([1]; 0.5 μg/kg once daily i.v.): inhibited | bone loss (histologic scoring) [1, 2]: reduced | pannus formation (histologic scoring) [1, 2]: reduced | clinical symptoms of arthritis (clinical scoring in the paws) ([1]; 5.0 μg/kg once daily i.v.): inhibited | bone loss (histologic scoring) [1, 3]: reduced | pannus formation (histologic scoring) [1, 3]: reduced | bone resorption (knee histopathology scoring) (rats with CIA; [4]): significant reduction | cartilage damage (knee histopathology scoring) (rats with CIA; [4]): significant reduction | inflammation (knee histopathology scoring) (rats with CIA; [4]): significant reduction | pannus (knee histopathology scoring) (rats with CIA; [4]): significant reduction | knee histopathology scores (rats with CIA; therapeutic dosing, FIG. 3): significantly reduced | bone resorption (rats with CIA; therapeutic dosing, FIG. 4): protected | joint damage (rats with CIA; therapeutic dosing, FIG. 4): protected
